This is an account of results in patent US9962427B2, “Treatment of right ventricular dysfunction due to pressure overload” (OTTAWA HOSPITAL RESEARCH INSTITUTE, priority 2016, dated 2018).

Series [1] deals with cardiomyocytes. The protocol: FIG. 7B Quantitation of cell viability analysis as shown in (A). FIG. 7C Quantification of PI cell viability FACS analysis following a 24 hrs treatment of cardiomyocytes with H2O2 in the presence or absence of hCT1. Pre-treatment with PI3K inhibitor (LY294002, 50 μM) before H2O2 was also tested.
Cardiomyocytes were treated with control serum-free media or with H2O2 (300 μM, 1 hr) to induce cell death in the presence or absence of hCT1 (0.5 nM). After 24 hrs, cells were incubated with the cell viability marker Propidium Iodide (PI) (1 μg/mL) and analyzed by FACS (Ex: 535 nm, Em: 617 nm) for viable cells; i.e. cells inside the gated region of the side scatter (SS) versus PI plot (FIG. 7A). […] The PI3K pathway is a critical feature of physiological cardiac adaptive compensation and is a key protective feature distinguishing it from pathological adaptive compensation. Therefore, cardiomyocytes were pre-treated with a PI3K inhibitor (LY294002, 50 μM) before CT-1/H2O2 treatment.

The test system of series [2] is rats. Kind of series: M-mode ECHO after 2 weeks of osmotic minipump delivery in rats. Format: in vivo, rat. As to conditions: ISO 1 mg/kg/day. The procedure:
FIGS. 3A, 3B, and 3C. […] Arrows (in upper panels) point to myocardial wall (RVLW). Dotted lines (in lower panels) show inner ventricle chambers.
CT-1 was tested in vivo to determine whether its administration would induce a myocardial adaptive remodeling characteristic of physiologic compensation (FIGS. 3A, 3B, and 3C). Osmotic minipumps containing PBS control (Ctrl) or hCT1 (6 μg/kg/hr) or Isoproterenol (ISO, 1 mg/kg/day) were implanted subcutaneously in rats. ISO is a beta-adrenergic receptor agonist and continuous infusion with ISO in rats is known to induce pathological cardiac hypertrophy and cardiomyocyte damage (in both the right and left ventricles) which progresses to heart failure (Morisco et al (2001) J Mol Cell Cardiol 33:561-573 and Grimm et al (1998) Cardiovascular Research 37:91-100). After 2 weeks of treatment, M-mode ECHO analysis was used to assess myocardial structure/function (FIG. 3A). In this model, an increased right ventricle lateral wall (RVLW) thickness indicates the presence of myocardiocytes growth, and an increased ratio of the right to left ventricle internal diameters (RVID/LVID) is an indicator of pathologic hypertrophy. An increased RVLW thickness but constant or reduced RVID:LVID ratio is an indicator of adaptive compensatory RV remodeling. Both hCT1 and ISO induced a significant increase in RVLW thickness (12% and 32% fold increase, respectively) compared to control rats (n=3; * and **, P<0.05). […] An in vivo growth reversal analysis was also conducted. Following a 2 week delivery of CT-1 protein (6 μg/kg/hr) or PE (10 mg/kg/day) as the pathologic control in this case, animals were then assessed for cardiac structure/function at a 6 week follow-on period. […] Collectively, these studies support the contention that CT-1 elicits a reversible physiologic cardiac adaptive compensation.

For series [3], the system named is Mef2. The series can be described thus: Mef2 luciferase reporter in primary neonatal cardiomyocytes. Format: cell-based. The conditions noted are these: hCT1 0.5 nM, PE 100 μM, PAC-1 25 μM. The procedure:
(§1) FIGS. 6A, 6B, and 6C. Stimulation with hCT1 causes sustained activation of NF-κB and Stat3 with limited activation of Mef2, as well as limited Nfat activation; the latter two indices are distinct expression patterns from pathologic hypertrophic stimulation. FIG. 6A Primary neonatal cardiomyocytes were transfected with luciferase reporter plasmids (NF-κB or Mef2), as indicators of hypertrophic activity. Luciferase activity was measured after treatments for 24 hrs with: hCT1 (0.5 nM), PE (100 μM), or procaspase 3 activating compound 1, PAC-1 (25 μM) (left). Treatments at early timepoints (30 min, 1 hr, and 3 hr) were also conducted for hCT1 (right). FIG. 6B Primary neonatal cardiomyocytes were transfected with a luciferase reporter plasmid for Stat3. Luciferase activity was measured after treatments for 24 hrs with: hCT1 (0.5 nM), PE (100 μM), or procaspase 3 activating compound 1, PAC-1 (25 μM) (left) and at earlier time points (right). FIG. 6C Primary neonatal cardiomyocytes were infected with a luciferase-based Nfat reporter Adenovirus (Nfat-AdV). Luciferase activity was measured after treatments for 24 hrs with: hCT1 (0.5 nM), PE (100 μM), or procaspase 3 activating compound 1, PAC-1 (25 μM) (left) and at earlier time points (right)
The signaling pathways that CT-1 engages in mediating physiologic adaptive compensatory remodeling were examined. The applicants predicted that cardiomyocyte adaptive remodeling mediated by CT-1 results (in part) from the induction of a specific transcriptional program, which is distinct from that of pathologic hypertrophic response. To address this hypothesis, the applicants tested the activity of two well-known transcription factor families that have been linked to both physiologic and pathologic cardiomyocyte growth, the Mef2 (Kolodziejczyk et al. 1999 Curr Biol. 9, 1203-1206; Kim et al. 2008, J Clin Invest. 118, 124-132.) and the NF-κB family (Gordon et al. 2011, Circ Res. 108, 1122-1132). Primary neonatal cardiomyocytes were transfected with luciferase reporter plasmids (NF-κB and Mef2) to be used as a read out of transcriptional activity. Luciferase activity was determined after treatments for 24 hrs with: hCT1 (0.5 nM), PE (100 μM), or procaspase 3 activating compound 1, PAC-1 (25 μM). […] This pattern of transcription factor activation was distinct from that induced by PE and by the caspase 3 specific activating compound PAC-1.

Series [4] has as its system STAT3. The series can be described thus: STAT3 luciferase reporter in cardiomyocytes. The format is cell-based. The conditions noted are these: 30 minutes up to 24 hours; hCT1 0.5 nM, PE 100 μM, PAC-1 25 μM. The protocol: as §1
Moreover, it is reasonable to assume that CT-1 may moderate the activity of additional transcription factors, which further contribute to the adaptive compensation phenotype. As such, Applicants decided to test the hypothesis that STAT3 (Signal transducer and activator of transcription 3) dependent transcriptional activity is a specific determinant for CT-1 induced physiologic adaptive compensation. STAT3 phosphorylation and transcriptional activation is a response that is common to the Interleukin-6 cytokine family (of which CT-1 is a member), which is mediated through binding and activation of a JAK/gp130 (Janus kinase/[…]) receptor complex.

Series [5] concerns NFAT. The series can be described thus: NFAT luciferase reporter adenovirus (Nfat-AdV) in cardiomyocytes. The format is cell-based. As to conditions: as early as 3 hours, up to 24 hours; PE 100 μM, PAC-1 25 μM. The protocol:
as §1
Applicants tested this supposition by infecting cardiomyocytes with an NFAT luciferase reporter linked to an Adenovirus (AdV) backbone (FIG. 6C). Cardiomyocytes were infected at a […] (MOI) of 20 with Nfat-AdV for 24 hours prior to stimulation with hCT1 (0.5 nM), PE (100 μM), or procaspase 3 activating compound 1, PAC-1 (25 μM). As an initial positive control, co-infection of NFAT-AdV with activated Calcineurin-AdV (a phosphatase and potent activator of NFAT signalling) caused a significant increase in NFAT activity (n=4; *, P<0.05). […] Although the exact mechanism of inhibition is unknown, Applicant has shown CT-1 engaging a PI3K signalling pathway and it would be reasonable to postulate that phosphorylation of NFAT by CT-1/PI3K signalling would limit NFAT activity.

In series [6] the test system is Vascular Endothelial Growth Factor—VEGF. Kind of series: VEGF expression by immunofluorescence in primary cardiomyocytes. The format is cell-based. The conditions noted are these: 24 hours; hCT1 0.5 nM, PE 100 μM, PAC-1 25 μM. The procedure:
FIGS. 8A and 8B. […] FIG. 8B Microarray analysis of primary cardiomyocytes stimulated with hCT1 (0.5 nM) for 24 hours.
Applicant explored the role of CT-1 as a pro-angiogenic factor in the adaptive hypertrophic response. Physiologic cardiac adaptive compensation is associated with an increase in capillary density, whereas pathologic response is characterized by a decline or no change at all. Importantly, the compensatory vascular growth/angiogenesis that occurs during physiologic adaptive compensation is permissive for the increased workload that accompanies physiologic adaptive compensation. Despite this adaptation, little information exists regarding the mechanisms that match the demand for angiogenesis to the beneficial form of myocardial growth. The rapid in vitro and in vivo adaptive compensation in response to CT-1 supports a hypothesis that the cardiomyocyte itself may act in a paracrine fashion, to signal and promote angiogenesis. To address this conjecture, Applicant examined whether CT-1 treated primary cardiomyocytes produced vascular endothelial growth factor (VEGF), an angiogenic factor known to be produced and secreted by cardiomyocytes. Primary cardiomyocytes were incubated with control serum-free media (Ctrl, SF media) or stimulated with hCT1 (0.5 nM), PE (100 μM), or PAC-1 (25 μM) for 24 hours. Immunofluorescence was used to detect α-actinin, Vascular Endothelial Growth Factor—VEGF, and nuclei. […] Based on these observations Applicant next conducted a comparative gene expression analysis of control (non-stimulated) versus CT-1 treated (0.5 nM, 24 hours) primary cardiomyocytes, using the Affymetrix Rat gene 2.0ST array.

The structures appear in SMILES notation.

Turning to `OO` [H2O2, hydrogen peroxide], the “cardiomyocyte viability decreased vs. control” value in series [1] (1 h, 300 μM) worked out at 24%. In addition, the “decrease in viability vs. control” value in series [1] (24 h) was 70%.
As for `CC(C)NCC(O)c1ccc(O)c(O)c1` (stereo not drawn) [ISO, Isoproterenol, reference compound], in series [2], the “increase in the RVID/LVID ratio” value is 24%. Besides, the “increase in RVLW thickness compared to control rats” value in series [2] (hCT1 6 μg/kg/hr, subcutaneous minipump) is recorded as 32 % fold increase.
`O=c1cc(N2CCOCC2)oc2c(-c3ccccc3)cccc12` [LY294002]: in series [1] (pre-treatment with LY294002 50 μM before CT-1/H2O2 (FIG. 7C)), the “decrease in viability compared to cells treated only with hCT1/H2O2” value is 46%.
Consider `C=CCc1cccc(/C=N/NC(=O)CN2CCN(Cc3ccccc3)CC2)c1O` [PAC-1, procaspase 3 activating compound 1, reference compound], for which the “Mef2 activation after 24 hrs” value in series [3] is recorded as “significant activation of Mef2”. Moreover, in series [4], the STAT3 activation entry is listed as “only minimal (if any) activation”. The “NFAT activity compared to baseline levels” value in series [5] was “significant increase of NFAT activity”. The “VEGF expression (immunofluorescence)” value in series [6] is on record as “less VEGF expression”.
